Marks after values point to notes of the source that are not given here.
Experiments:
[1] = Kinetics of epoxy-ring opening with different nucleophiles (t-butyl glycidyl ether in water); assay type: physicochemical; conditions: for reactivity relative to nucleophiles without a sulfur atom: 20° C. and pH of about 7; for Reacted substrate / k · 10^3: 20° C., pH ca. 7
Description: Pursuant to the present invention, the functional groups need to cleave an epoxy ring, and nucleophilic groups are illustrative in this respect.

[2] = Kinetics of epoxy-ring opening with different nucleophiles (triglicidyl amine in water); assay type: physicochemical; conditions: 20° C.; for K * 10^3 / Reacted substrate: pH ca. 7; for rate of reaction with TGA-epoxy (k): pH 7.4, 20 mM of MABP
Description: The bioprosthetic materials treated by both MABP and TGA show a significant improvement in anti-calcification ability. Consequently, it is believed that the MABP has successfully met the above-mentioned criteria, i.e., the reactive functional group is active enough to dominate the co-attachment reaction between MABP and TGA, and to cause MABP to attach to a TGA epoxide more completely.

[3] = TGA cross-linking of bovine pericardium, shrink temperature (Ts) by DSC; assay type: physicochemical; conditions: for shrink temperature (Ts): 100 mM TGA, borate mannitol buffer pH 7.4, room temperature
Procedure: Bovine pericardium was obtained fresh at slaughter and transported to the lab on ice. After extensive rinsing with normal saline, the tissue was cut into 1 cm squares and segregated into 5 groups for crosslinking as described below. Reactions were carried out at room temperature on a rocker platform for 7 days with daily replacement of each solution with one freshly prepared in borate mannitol buffer (9.33 g/l sodium tetraborate, −˜2 g mannitol to pH 7.4). Pericardial samples were removed from the reaction vessels daily, rinsed and stored individually at 4° C. in normal saline for shrink temperature determination (Ts) by Differential Scanning […] (DSC) analysis at the end of the experiment.
MABP stock solution was prepared daily by adding water, neutralizing with NaHCO3, and diluting to one of the three desired concentrations (2 mM, 20 mM, 100 mM) in boratemannitol buffer. TGA then was added to each solution to a final concentration of 100 mM TGA. Two additional groups were treated solely with 100 mM TGA in the same buffer for 7 days, and one of these treated again on day 8 with 100 mM MABP in buffer.
Further experiments were done testing the anti-calcification potential of MABP co-attachment utilized the maximum non-interfering condition tested: 20 mM MABP and 100 mM TGA in borate-mannitol buffer, pH 7.4. Those experimental data are shown in Table III and graphically in FIG. 1.

porcine aortic wall = experiment: 21-day rat subdermal implants, Ca content by atomic absorption: aortic wall; assay type: in vivo, Sprague-Dawley rats; conditions: Aortic wall implanted
Procedure: (§1) A series of bioprosthetic material samples were prepared, in order to compare the anti-calcification efficacy of TGA-MABP with TGA crosslinking alone. The material used were porcine aortic valve cusps, porcine aortic wall, and bovine pericardium. These materials were obtained fresh at slaughter and transported to the laboratory on ice.

bovine pericardium = experiment: 21-day rat subdermal implants, Ca content by atomic absorption: pericardium; assay type: in vivo, Sprague-Dawley rats; conditions: Pericardium implanted
Procedure: as §1

[4] = tested on: porcine aortic valve cusps; experiment: 21-day rat subdermal implants, Ca content by atomic absorption: cusp; assay type: in vivo, Sprague-Dawley rats; conditions: Cusp implanted
Procedure: as §1

[5] = tested on: aortic wall segment of a bioprosthetic implant; conditions: TGA-crosslinking methodology, related art; cited from earlier work
[6] = tested on: bovine pericardial calcification; conditions: TGA-crosslinking methodology, related art; cited from earlier work
[7] = Rat weight in 21-day subdermal implant study; conditions: 21-day rat subdermal implants
Procedure: All materials were rinsed thoroughly with normal saline, and 1 cm^2 pieces of aortic wall, pericardium, or individual cusp leaflets crosslinked with 100 mM TGA with the inclusion of 20 mM MABP, as described above with daily replacement of solutions for 7 days. After thorough rinse with normal saline, biomaterials were surgically implanted in dorsal subdermal pouches of 75–80 g male Sprague-Dawley rats as previously described. Animals were sacrificed after 21 days, implants recovered, rinsed, dried, and analyzed for Ca content by atomic absorption spectroscopy (AA).

[8] = substrate 0.2 M, epoxide 0.1 M, time of reaction 1 h
[9] = substrate 0.1 M, epoxide 0.3 M, time of reaction 48 h
[10] = substrate 0.2 M, epoxide 0.1 M, time of reaction 2 h
[11] = substrate 0.4 M, epoxide 0.3 M, time of reaction 120 h
[12] = substrate 0.1 M, epoxide 0.3 M, time of reaction 5 min
[13] = substrate 0.1 M, epoxide 0.3 M, time of reaction 15 min
[14] = substrate 0.2 M, epoxide 0.06 M, time of reaction 1.75 h
[15] = substrate 0.1 M, epoxide 0.3 M, time of reaction 120 h
[16] = substrate 0.1 M, epoxide 0.3 M, time of reaction 3 h
[17] = substrate 0.1 M, epoxide 0.3 M, time of reaction 19 h

Which results are given for `N[C@@H](CS)C(=O)O` [Cysteine]?
reactivity relative to nucleophiles without a sulfur atom [1]: at least twenty times more reactive; Reacted substrate [1, 8]: 13%; k · 10^3 [1, 8]: 1618 l/mol · h; K * 10^3 [2, 8]: 1618 1/mol * h; Reacted substrate [2, 8]: 13%

With `C1OC1CN(CC1CO1)CC1CO1` (centres unmarked) [TGA, triglycidyl amine] as the compound, how does the “shrink temperature (Ts)” value ([3]; Day 1 of crosslinking) read?
The value was 72.6 +/− 1.0.

And the “shrink temperature (Ts)” value ([3]; Day 2 of crosslinking)?
Its value is 77.4 +/− 0.5.

And the “shrink temperature (Ts)” value ([3]; Day 3 of crosslinking)?
The value was 78.2 +/− 0.3.

And the “shrink temperature (Ts)” value ([3]; Day 4 of crosslinking)?
The value was 79.6 +/− 0.4.

What about the “shrink temperature (Ts)” value ([3]; Day 6 of crosslinking) of the same compound?
The value was 80.2 +/− 0.3.

What about the “shrink temperature (Ts)” value ([3]; Day 7 of crosslinking) of the same compound?
Its value is 81.0 +/− 0.6.

What about the Ca (porcine aortic wall) of the same compound?
The Ca was 7.73 +/− 0.90 μg/mg dry wt.

What about the Ca (bovine pericardium) of the same compound?
The Ca was 11.23 +/− 4.74 μg/mg dry wt.

What about the Ca ([4]; rat subdermal implants, prev. exp.) of the same compound?
Its Ca is 2.07 +/− 0.31 μg/mg dry wt.

And the “inhibition of calcification of the aortic wall segment” value [5]?
Its value is “relatively ineffective”.

What about the “inhibiting bovine pericardial calcification” value [6] of the same compound?
Its value is “less effective”.

What about the Rat weight ([7]; Aortic wall implanted) of the same compound?
The Rat weight was 247.8 ± 7.9 g.

And the Rat weight ([7]; Pericardium implanted)?
Its Rat weight is 268.2 ± 9.9 g.

Which results are given for `c1c[nH]cn1` [Imidazole]?
Reacted substrate [1, 9]: 28%; k · 10^3 [1, 9]: 24 l/mol · h

For `O=CCCCC=O` [Glutaraldehyde], which Ca ([4]; 21-day rat subdermal implants) is on record?
Its Ca is 89.03 +/− 5.59* μg/mg dry wt.

And the Rat weight ([7]; Cusp implanted)?
The Rat weight was 268.8 ± 6.5 g.

With `O=P(O)(O)C(CS)P(=O)(O)O` [MEBP, 2-mercaptoethlidene-1,1-bisphosphonate] as the compound, how does the “rate of reaction with TGA-epoxy (k)” value [2] read?
The value was 0.035 mol⁻¹ h⁻¹.

And the “K * 10^3” value [2, 10]?
Its value is 35 1/mol * h.

What about the Reacted substrate [2, 10] of the same compound?
Its Reacted substrate is 0.7%.

For Phosphate, which Reacted substrate [1, 11] is on record?
Its Reacted substrate is 12%.

And the “k · 10^3” value [1, 11]?
The value was 3.9 l/mol · h.

Which “reactivity relative to nucleophiles without a sulfur atom” value [1] does the source give for `O=S(O)(O)=S` [Thiosulfate] here?
Its value is “at least twenty times more reactive”.

And the Reacted substrate [1, 12]?
Its Reacted substrate is 30%.

And the “k · 10^3” value [1, 12]?
Its value is 23 000 l/mol · h.

And the Reacted substrate [1, 13]?
Its Reacted substrate is 52%.

And the “k · 10^3” value [1, 13]?
Its value is 17 000 l/mol · h.

And the “K * 10^3” value [2, 12]?
Its value is 23000 1/mol * h.

And the Reacted substrate [2, 12]?
Its Reacted substrate is 30%.

And the “K * 10^3” value [2, 13]?
The value was 17000 1/mol * h.

And the Reacted substrate [2, 13]?
Its Reacted substrate is 52%.

Which “rate of reaction with TGA-epoxy (k)” value [2] does the source give for `O=P(O)(O)C(CNCCS)P(=O)(O)O` [MABP, 2-(2-mercaptoethylamino)-ethylidene-1,1-bisphosphonate] here?
The value was 1.2 mol⁻¹ h⁻¹.

And the “K * 10^3” value [2, 14]?
The value was 1120 1/mol * h.

And the Reacted substrate [2, 14]?
The Reacted substrate was 10%.

And the “interference of MABP with the TGA crosslinking process (DSC)” value ([3]; equimolar concentration of MABP and TGA (100 mM each) versus the other conditions)?
The value was “grossly slowed the crosslinking process”.

What about the “effects on rat weight gain” value ([7]; inclusion of MABP) of the same compound?
Its value is “no significant effects”.

For `CC(=O)N[C@@H](Cc1c[nH]cn1)C(=O)O` [N-Acetyl-L-histidine], which Reacted substrate [1, 15] is on record?
Its Reacted substrate is 60%.

And the “k · 10^3” value [1, 15]?
Its value is 29 l/mol · h.

What does the source list for `CC(O)(P(=O)(O)O)P(=O)(O)O` [HEDP]?
Reacted substrate [1, 11]: 5.5%; k · 10^3 [1, 11]: 1.6 l/mol · h

For `CSCCC(NC(C)=O)C(=O)O` (racemic) [N-Acetyl-DL-methionine], which “reactivity relative to nucleophiles without a sulfur atom” value [1] is on record?
Its value is “at least twenty times more reactive”.

And the Reacted substrate [1, 16]?
The Reacted substrate was 33%.

And the “k · 10^3” value [1, 16]?
Its value is 473 l/mol · h.

And the Reacted substrate [1, 17]?
Its Reacted substrate is 89%.

And the “k · 10^3” value [1, 17]?
Its value is 488 l/mol · h.
